Measured values reported in US7265152B2 (ViroPharma Incorporated, priority 2002, dated 2007).

Assays:
[1] = system: HCV replicon (BB7 sequence) in Huh-7-Clone A cells; test: HCV replicon assay: ELISA of NS5A protein in replicon-containing cells (Inhibition of Viral RNA Replication); type: cell-based; conditions: Hepatitis C virus; Huh-7-Clone A, NS5A ELISA, 72-hour incubation; ranges of EC50; read-out: Replicon
Description: Antiviral activity of representative compounds of the invention was first evaluated in a human liver-derived cell line (Huh-7-Clone A) containing the HCV replicon (BB7 sequence) (See Lohmann et al. Science. 1999, 285:110-3; Blight K J et al., Science. 2000, 290:1972-4; Pietschmann, T. et al., J. Virol. 2001, 73:1252-1264; and Lohmann, V. et al., J. Virol. 2001, 75:1437-1449). The HCV replicon is a subgenomic viral RNA that expresses the HCV proteins required for its own replication. These proteins include non-structural proteins NS3, NS4A, NS4B, NS5A and NS5B. The replicon also contains a foreign gene encoding a drug-selectable marker (neomycin phosphotransferase) to allow for G418 (neomycin) selection of cells that contain the replicon.
An ELISA (enzyme-linked immunosorbant assay) was used to determine the effect of compounds within the scope of the invention on the amount of HCV NS5A protein produced after a 72-hour incubation of the replicon-containing cells in the presence of varying concentrations of compound. COSTAR® 96-well cell culture plates were used but other known cell culture plates may be used. After incubation, media is removed from wells and the cells are fixed to the assay plate using 0.05% glutaraldehyde. The glutaraldehyde is then washed off using phosphate-buffered saline (PBS) following a 1 hour incubation and cells are blocked for non-specific antibody binding using for example SUPERBLOCK® reagent (blocking buffer) in PBS. The blocking agent is rinsed from the cells with PBS after 1 hour at 37° C. and primary monoclonal antibody is added to each well containing compound. Primary antibody is incubated for 1 hour at 37° C. and rinsed 3 times with PBS containing 0.02% TWEEN-20™ before addition of Horseradish Peroxidase (HRP) conjugated secondary antibody. HRP is incubated for 1 hour at 37° C. and rinsed several times, first with PBS/TWEEN-20™ followed by PBS alone. To quantify peroxidase activity, 3,3′,5, 5′-tetramethylbenzidine (TMB) substrate is added to the plate and after 30 minutes, the plates are read in an ELISA plate reader at an OD of 650 nm. Compound dose response was measured in an 8-point dose curve diluted serially to determine the inhibitory concentration at 50% (EC50 value). […] Ranges of 50% effective concentrations (EC50s) for representative compounds within the scope of this invention are listed in Table 1. Preferred compounds have 50% effective concentrations at about 30 μM or less, more preferred compounds have 50% effective concentrations at about 5 μM or less, and most preferred compounds have 50% effective concentrations at about 0.5 μM or less.

HCV NS5B = target: T1, HCV NS5B (Hepatitis C virus genotype 1b, UniProt Q9WMX2); test: Inhibition of viral RNA-dependent RNA polymerase (RdRp), in vitro biochemical assay; design: species or system HCV genotype 1b virus (BB7); conditions: purified His-tagged NS5B (BB7), carboxyl terminal 21 amino acids removed; read-out: HCV pol-BB7 IC50
T1 construct: fusion protein, of which the carboxyl terminal 21 amino acids were removed to enhance its solubility; His tag (GSHHHHHH); made in house; host or cells: E. coli
Outline: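 Purified recombinant NS5B from a genotype 1b consensus (BB7), His-tagged, E. coli-expressed, with the C-terminal 21 residues deleted. Inhibition of RdRp activity in vitro was measured, and IC50 is the concentration giving 50% inhibition.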

| Compound | EC50 [1] | IC50 (HCV NS5B) |
| --- | --- | --- |
| CNC(=O)c1c(-c2ccc(F)cc2)oc2cc(N(CCO)S(C)(=O)=O)c(C3CC3)cc12 [Example 43, 5-Cyclopropyl-2-(4-fluoro-phenyl)-6-[(2-hydroxy-ethyl)-methanesulfonyl-amino]-benzofuran-3-carboxylic acid methylamide] | < 1 µM | ≤ 0.5 µM |
| CCc1cc2c(C(=O)NC)c(-c3ccc(F)cc3)oc2cc1NS(C)(=O)=O [Example 44, 5-Ethyl-2-(4-fluoro-phenyl)-6-methanesulfonylamino-benzofuran-3-carboxylic acid methylamide] | < 10 µM | ≤ 0.5 µM |
| CCc1cc2c(C(=O)NC)c(-c3ccc(F)cc3)oc2cc1N(C)S(C)(=O)=O [Example 45, 5-Ethyl-2-(4-fluoro-phenyl)-6-(methanesulfonyl-methyl-amino)-benzofuran-3-carboxylic acid methylamide] | < 1 µM | ≤ 0.5 µM |
| CCc1cc2c(C(=O)NC)c(-c3ccc(F)cc3)oc2cc1N(CCO)S(C)(=O)=O [Example 46, 5-Ethyl-2-(4-fluoro-phenyl)-6-[(2-hydroxy-ethyl)-methanesulfonyl-amino]-benzofuran-3-carboxylic acid methylamide] | < 1 µM | ≤ 0.5 µM |
| CNC(=O)c1c(-c2ccc(F)cc2)oc2cc(C3CCCN3C(C)=O)c(OC)cc12 (stereo not drawn) [Example 47, 6-(1-Acetyl-pyrrolidin-2-yl)-2-(4-fluoro-phenyl)-5-methoxy-benzofuran-3-carboxylic acid methylamide] | < 1 µM | ≤ 0.5 µM |
| CNC(=O)c1c(-c2ccc(F)cc2)oc2cc(C3CNC(=O)O3)c(OC)cc12 (stereo not drawn) [Example 48, 2-(4-Fluoro-phenyl)-5-methoxy-6-(2-oxo-oxazolidin-5-yl)-benzofuran-3-carboxylic acid methylamide] | < 10 µM | ≤ 0.5 µM |
| CNC(=O)c1c(-c2ccc(F)cc2)oc2cc(C(C)(C)O)c(OC)cc12 [Example 49, 2-(4-Fluoro-phenyl)-6-(1-hydroxy-1-methyl-ethyl)-5-methoxy-benzofuran-3-carboxylic acid methylamide] | < 1 µM | ≤ 0.5 µM |
| CNC(=O)c1c(-c2ccc(F)cc2)oc2cc(-c3noc(C)n3)c(OC)cc12 [Example 50, 2-(4-Fluoro-phenyl)-5-methoxy-6-(5-methyl-[1,2,4]oxadiazol-3-yl)-benzofuran-3-carboxylic acid methylamide] | < 1 µM | ≤ 0.5 µM |
| CNC(=O)c1c(-c2ccc(F)cc2)oc2cc(-c3c(C)noc3C)c(OCCCO)cc12 [Example 51, 6-(3,5-Dimethyl-isoxazol-4-yl)-2-(4-fluoro-phenyl)-5-(3-hydroxy-propoxy)-benzofuran-3-carboxylic acid methylamide] | < 1 µM | ≤ 0.5 µM |
| CNC(=O)c1c(-c2ccc(F)cc2)oc2cc(N(C)S(C)(=O)=O)c(OCCN3CCOCC3)cc12 [Example 52, 2-(4-Fluoro-phenyl)-6-(methanesulfonyl-methyl-amino)-5-(2-morpholin-4-yl-ethoxy)-benzofuran-3-carboxylic acid methylamide] | < 1 µM | ≤ 0.5 µM |
| CNC(=O)c1c(-c2ccccc2)oc2ccc(OCc3ccccc3-c3ccccc3)cc12 [Example 53, 5-(Biphenyl-2-ylmethoxy)-2-phenyl-benzofuran-3-carboxylic acid methylamide] | < 30 µM | 5 to 30 µM |
| CNC(=O)c1c(-c2ccc(OC)cc2)oc2ccc(OC)cc12 [Example 54, 5-Methoxy-2-(4-methoxy-phenyl)-benzofuran-3-carboxylic acid methylamide] | < 10 µM | 0.5 to 5 µM |
| CNC(=O)c1c(-c2cccc(C(F)(F)F)c2)oc2ccc(OC)cc12 [Example 55, 5-Methoxy-2-(3-trifluoromethyl-phenyl)-benzofuran-3-carboxylic acid methylamide] | < 30 µM | 0.5 to 5 µM |
| CNC(=O)c1c(-c2ccc(C(F)(F)F)cc2)oc2ccc(OC)cc12 [Example 56, 5-Methoxy-2-(4-trifluoromethyl-phenyl)-benzofuran-3-carboxylic acid methylamide] | < 10 µM | 0.5 to 5 µM |
| CCOc1ccc2oc(-c3ccccc3)c(C(=O)NC)c2c1 [Example 57, 5-Ethoxy-2-phenyl-benzofuran-3-carboxylic acid methylamide] | > 30 µM | 0.5 to 5 µM |
| CNC(=O)c1c(-c2ccccc2F)oc2ccc(OC)cc12 [Example 58, 2-(2-Fluoro-phenyl)-5-methoxy-benzofuran-3-carboxylic acid methylamide] | < 10 µM | 0.5 to 5 µM |
| CNC(=O)c1c(-c2ccccc2)oc2ccc(OC(C)C)cc12 [Example 59, 5-Isopropoxy-2-phenyl-benzofuran-3-carboxylic acid methylamide] | < 30 µM | 0.5 to 5 µM |
| CCCCOc1ccc2oc(-c3ccccc3)c(C(=O)NC)c2c1 [Example 60, 5-Butoxy-2-phenyl-benzofuran-3-carboxylic acid methylamide] | < 30 µM | 0.5 to 5 µM |
| CCCOc1ccc2oc(-c3ccccc3)c(C(=O)NC)c2c1 [Example 61, 2-Phenyl-5-propoxy-benzofuran-3-carboxylic acid methylamide] | < 30 µM | 0.5 to 5 µM |
| CNC(=O)c1c(-c2cc(F)c(F)cc2F)oc2ccc(OC)cc12 [Example 62, 5-Methoxy-2-(2,4,5-trifluoro-phenyl)-benzofuran-3-carboxylic acid methylamide] | < 30 µM | 5 to 30 µM |
| CNC(=O)c1c(-c2ccccc2)oc2c(C)cc(OC)cc12 [Example 63, 5-Methoxy-7-methyl-2-phenyl-benzofuran-3-carboxylic acid methylamide] | < 10 µM | 0.5 to 5 µM |
| CNC(=O)c1c(-c2ccc(F)cc2)oc2ccc(OC(C)C)cc12 [Example 65, 2-(4-Fluoro-phenyl)-5-isopropoxy-benzofuran-3-carboxylic acid methylamide] | < 30 µM | 0.5 to 5 µM |
| CNC(=O)c1c(-c2ccccc2Cl)oc2ccc(OC)cc12 [Example 66, 2-(2-Chloro-phenyl)-5-methoxy-benzofuran-3-carboxylic acid methylamide] | > 30 µM | 5 to 30 µM |
| CNC(=O)c1c(-c2ccccc2)oc2cc(OC)ccc12 [Example 67, 6-Methoxy-2-phenyl-benzofuran-3-carboxylic acid methylamide] | < 10 µM | 0.5 to 5 µM |
| CNC(=O)c1c(-c2ccco2)oc2ccc(OC)cc12 [Example 68, 2-Furan-2-yl-5-methoxy-benzofuran-3-carboxylic acid methylamide] | < 30 µM | 0.5 to 5 µM |
| CNC(=O)c1c(-c2ccc(C)c(F)c2)oc2ccc(OC)cc12 [Example 69, 2-(3-Fluoro-4-methyl-phenyl)-5-methoxy-benzofuran-3-carboxylic acid methylamide] | < 10 µM | ≤ 0.5 µM |
| CNC(=O)c1c(-c2ccc(Br)cc2)oc2ccc(OC)cc12 [Example 70, 2-(4-Bromo-phenyl)-5-methoxy-benzofuran-3-carboxylic acid methylamide] | < 10 µM | ≤ 0.5 µM |
| CNC(=O)c1c(-c2ccc(F)c(C)c2)oc2ccc(OC)cc12 [Example 71, 2-(4-Fluoro-3-methyl-phenyl)-5-methoxy-benzofuran-3-carboxylic acid methylamide] | < 30 µM | ≤ 0.5 µM |
| CNC(=O)c1c(-c2ccc(F)cc2)oc2ccc(Cl)cc12 [Example 73, 5-Chloro-2-(4-fluoro-phenyl)-benzofuran-3-carboxylic acid methylamide] | < 10 µM | 0.5 to 5 µM |
| CNC(=O)c1c(-c2ccccc2)oc2ccc(C(C)(C)C)cc12 [Example 74, 5-tert-Butyl-2-phenyl-benzofuran-3-carboxylic acid methylamide] | < 10 µM | ≤ 0.5 µM |
